Results taken from ChEMBL document CHEMBL5614434, “A Lysosome-Targeting hNEU1 Inhibitor Treats Myocardial Infarction: A Potential Therapeutic Breakthrough” (J Med Chem, 2024).

Test system: H9c2
Experiment: Cytotoxicity against rat H9c2 cells assessed as cell viability at 0.001 to 50 uM under normoxia condition by CCK-8 method
Format: toxicity, cell-based
Conditions: h9c2, 50 µM, dose 0.001-50 µM

SMILES	Activity
CCC(CC)O[C@@H]1C=C(C(=O)OCCN2CCNCC2)C[C@H](N)[C@H]1NC(C)=O	Non-Toxic
CCC(CC)O[C@@H]1C=C(C(=O)OCCN(C)C)C[C@H](N)[C@H]1NC(C)=O	Non-Toxic
